Entries after “also recorded” stand apart in the source; their conditions may differ. Strand notation (5' to 3'): a small letter for the sugar, then the base; units joined by * are phosphorothioate-linked, units joined directly phosphodiester-linked; [ ] holds rarer units or linkages, { } end groups; capitals alone tell only the bases. d = 2'-deoxy (DNA)
What was measured:
Assay type in all cases: in vivo, rat
rats with SNI = assay: Mechanical allodynia in rats with spared nerve injury (SNI); settings: single dose of 6 mg/kg seven days after SNI, s.c.
Source text: In twenty-six rats anesthetized with Isoflurane (5% induction, 2.5% maintenance, 0.8 L/min O2 flow rate; Piramal Healthcare, UK), the right sciatic nerve and its three distal branches were exposed by blunt dissection, and the tibial and common peronneal branches completely sectioned and ligated to prevent regeneration. The third branch, the sural nerve, was left intact. The animals received one single injection of ketoprofen for post-surgical pain control and were left to recover from anesthesia in a warm and quiet environment before relocating them in their corresponding cages.
Rats were administered subcutaneously using the LT protocol (FIG. 4A) and a single dose of 6 mg/kg of IMT504. This was followed by pain-like behavior testing for up to six weeks after SNI.
Naïve (uninjured and untreated; n=16), CFA injured untreated (n=10), and vehicle-treated CFA (n=9) or SNI rats (n=10) were used as controls. Eight naïve rats remained untreated, four were vehicle-treated, and four received a daily dose of 20 mg/kg IMT504 for five consecutive days. Untreated CFA rats received an intradermal hind paw injection of CFA and no further treatment. Vehicle-treated CFA rats received five daily subcutaneous injections of saline (200 μl), starting seven days after injury. Vehicle-treated SNI rats received one single dose of saline (200 ul), starting seven days after injury. […]

[1] = test system: rats with hind paw inflammation (CFA rats); assay: Hind paw dorsoventral thickness in rats with CFA-induced hind paw inflammation; settings: preventive IMT504 before CFA; whole tested period
Method: In fifty-two rats anesthetized with Isoflurane (5% induction, 2.5% maintenance, 0.8 L/min O2 flow rate; Piramal Healthcare, UK), the right hind paw was injected intra-dermally with 100 μl of CFA (1:1, dissolved in normal saline; Sigma-Aldrich, Mo., USA), using a 1 ml syringe with a 25G needle attached. The animals (from now on, called CFA rats) were left to recover from anesthesia in a warm and quiet environment before relocating them in their corresponding cages.
In one set of experiments, called “preventive treatment”, four rats received a daily dose of 20 mg/kg IMT504 for five consecutive days and four weeks later one dose of 6 mg/kg (group a); a second group of four rats received one dose of 6mg/kg of IMT504 (group b) (FIG. 1A). Three days after the single injection of 6 mg/kg IMT504, all eight rats received intra-plantar CFA, after which they were tested for mechanical and cold allodynia during 21 days. At day 28, group b received an additional administration of IMT504 at a dose of 3 mg/kg and was evaluated until day 35. […]
Eight rats received a dose of 6 mg/kg IMT504 (FIGS. 2 and 3). […] On day 28 (FIG. 1) or 28 (FIG. 2), rats receiving preventive IMT504 were administered additional IMT504 at a dose of 3 mg/kg (FIG. 1) or 2 mg/kg (FIG. 2), and assessed until days 21-35.

[2] = test system: rats with post-incisional pain; assay: Mechanical allodynia in rats with post-incisional pain (plantar incision); settings: 6 mg/kg s.c. 48 h and 24 h before incision
Source text: In twenty-four rats anesthetized with Isoflurane (5% induction, 2.5% maintenance, 0.8 L/min O2 flow rate; Scott-Cassara, Argentina), the right hind paw plantar skin was cleaned and disinfected. This was followed by a 1-cm longitudinal incision distal to heel and extending towards the toes, as previously described (Xu J, et al., 2011, 24(5): 508-514). The incision involved both plantar skin and fascia. This was followed by identification and longitudinal incision of plantar […] muscle, leaving its insertions intact. After achieving homeostasica, skin was sutured using a 5-0 nylon suture, protected with an antibacterial cream and the animal was returned to its retention cage, under observation, until full recovery from anesthesia.
Rats were subcutaneously administered 6 mg/kg of IMT504, 48 and 24 h before implementing the post-incisional pain model. This was followed by pain-like behavior testing for up to 21 days after injury.
For mechanical allodynia assessment, a set of von Frey filaments (Stoelting, Ill., USA) and the modified up-down method of Dixon were used, to establish the 50% withdrawal threshold. A withdrawal threshold of 0.21 oz or less was considered an allodynic response.

IMT504: synthetic phosphorothioate oligodeoxynucleotide with sequence 5′-TCATCATTTTGTCATTTTGTCATT-3′ (SEQ ID No 1) (DNA dT*dC*dA*dT*dC*dA*dT*dT*dT*dT*dG*dT*dC*dA*dT*dT*dT*dT*dG*dT*dC*dA*dT*dT)
full recovery of mechanical withdrawal thresholds (rats with SNI): fully recovered from week three and onwards | time from which mechanical withdrawal thresholds are almost at basal levels (rats with SNI): 12 days after injury | effect on hind paw inflammation (dorsoventral paw thickness) [1]: does not prevent occurrence of inflammation; also recorded: did not seem to alter the natural course of hind paw inflammation; also recorded: without altering the inflammatory state of the affected hind paw | day after injury from which basal withdrawal thresholds are shown [2]: 3 days | mechanical withdrawal thresholds and responses to cold stimuli in contralateral hind paws ([2]; data not shown): remained normal | reduction of mechanical withdrawal thresholds at 6 h and 1 day after injury ([2]; vs vehicle): lower reduction of withdrawal thresholds

— US20220362279A1, “USE OF OLIGONUCLEOTIDES FOR THE TREATMENT AND PREVENTION OF PAIN” (CONSEJO NACIONAL DE INVESTIGACIONES CIENTÍFICAS Y TÉCNICAS, priority 2018, published 2022)
